# Patent US10072026B2, “Crystalline form of 3-((1R,3s,5S)-3-((7-((5-methyl-1H-pyrazol-3-yl)amino)-1,6-naphthyridin-5-yl)amino)-8-azabicyclo[3.2.1]octan-8-yl)propanenitrile” (priority 2015, dated 2018)
# Legend:
# [1] = system: IL-4 induced STAT6 phosphorylation in THP-1 human monocytic cells; assay: Cellular JAK potency assay, THP-1
# JAK1 = JAK1 (Homo sapiens (Human), UniProt P23458); assay: LanthaScreen JAK biochemical assay (JAK1); details: for Ki: read-out: JAK 1 (pKi) (converted)
# [2] = IL-4 induced STAT6 phosphorylation, THP-1 cells
# [3] = THP-1 cells, IL-4 induced STAT6 phosphorylation
# [4] = Homo sapiens, THP-1, read-out: THP-1 IL4 pIC50 (converted)
# JAK1, sequence (P23458 whole entry): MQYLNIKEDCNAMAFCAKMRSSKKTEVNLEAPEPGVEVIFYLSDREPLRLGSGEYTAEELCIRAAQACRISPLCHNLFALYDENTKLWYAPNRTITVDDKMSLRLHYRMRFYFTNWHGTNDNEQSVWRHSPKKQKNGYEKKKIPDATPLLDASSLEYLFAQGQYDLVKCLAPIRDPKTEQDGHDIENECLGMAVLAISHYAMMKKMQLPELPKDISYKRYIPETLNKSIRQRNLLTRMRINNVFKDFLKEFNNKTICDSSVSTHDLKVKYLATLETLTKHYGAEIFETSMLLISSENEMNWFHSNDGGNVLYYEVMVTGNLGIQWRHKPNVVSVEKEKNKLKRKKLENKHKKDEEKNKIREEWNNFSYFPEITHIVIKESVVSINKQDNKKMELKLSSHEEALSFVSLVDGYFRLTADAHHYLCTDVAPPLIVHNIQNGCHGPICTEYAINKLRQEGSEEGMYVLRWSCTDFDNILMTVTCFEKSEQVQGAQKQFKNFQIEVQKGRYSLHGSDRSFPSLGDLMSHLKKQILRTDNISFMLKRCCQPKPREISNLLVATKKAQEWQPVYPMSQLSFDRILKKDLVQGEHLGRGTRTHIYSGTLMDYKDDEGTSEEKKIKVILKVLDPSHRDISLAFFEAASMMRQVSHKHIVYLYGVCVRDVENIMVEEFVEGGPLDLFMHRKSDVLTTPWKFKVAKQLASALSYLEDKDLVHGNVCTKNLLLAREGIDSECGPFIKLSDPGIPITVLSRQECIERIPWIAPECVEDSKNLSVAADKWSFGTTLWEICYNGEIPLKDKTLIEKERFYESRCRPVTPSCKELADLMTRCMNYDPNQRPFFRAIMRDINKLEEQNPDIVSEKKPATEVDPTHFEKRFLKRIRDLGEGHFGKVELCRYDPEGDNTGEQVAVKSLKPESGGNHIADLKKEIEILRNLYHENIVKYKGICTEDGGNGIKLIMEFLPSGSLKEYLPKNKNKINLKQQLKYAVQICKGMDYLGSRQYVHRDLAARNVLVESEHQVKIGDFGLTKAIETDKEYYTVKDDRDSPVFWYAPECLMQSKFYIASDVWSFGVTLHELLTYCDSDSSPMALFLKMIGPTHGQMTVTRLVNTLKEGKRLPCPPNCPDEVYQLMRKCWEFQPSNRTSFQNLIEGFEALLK
smiles,measurement,setting,value
Cc1cc(Nc2cc3nc(CN4CCOCC4)ccc3c(N[C@@H]3C[C@H]4CC[C@@H](C3)N4CC(C)C)n2)n[nH]1 [Example 5-19],THP-1 IL4 pIC50,[1]; [2],B (B represents a pEC50 value between 6.7 and 7.5 (EC50 between 200 nM and 32 nM))
same,JAK 1 (pKi),JAK1,B (B represents a pKi value between 9 and 10 (Ki between 1 nM and 0.1 nM))
COCCS(=O)(=O)N1[C@@H]2CCC[C@H]1C[C@H](Nc1nc(Nc3cc(C)[nH]n3)cc3nc(CN4CCOCC4)ccc13)C2 [Example 5-24],THP-1 IL4 pIC50,[1]; [2],B (B represents a pEC50 value between 6.7 and 7.5 (EC50 between 200 nM and 32 nM))
Cc1cc(Nc2cc3ncccc3c(N[C@@H]3C[C@H]4CCC[C@@H](C3)N4Cc3cccc(O)c3)n2)n[nH]1 [Example 1-49],THP-1 IL4 pIC50,[1]; [2],A (A represents a pEC50 value≥7.5 (EC50≤32 nM))
COc1ccc2c(N[C@@H]3C[C@H]4CC[C@@H](C3)N4CCCF)nc(Nc3cc(C)[nH]n3)cc2n1 [Example 5-5],THP-1 IL4 pIC50,[1]; [2],B (B represents a pEC50 value between 6.7 and 7.5 (EC50 between 200 nM and 32 nM))
same,JAK 1 (pKi),JAK1,B (B represents a pKi value between 9 and 10 (Ki between 1 nM and 0.1 nM))
C=CCS(=O)(=O)N1[C@@H]2CCC[C@H]1C[C@H](Nc1nc(Nc3cc(C)[nH]n3)cc3ncccc13)C2 [Example 4-22],THP-1 IL4 pIC50,[1]; [2],A (A represents a pEC50 value≥7.5 (EC50≤32 nM))
Cc1cc(Nc2cc3ncccc3c(N[C@@H]3C[C@H]4CCC[C@@H](C3)N4CC(F)(F)F)n2)n[nH]1 [Example 1-45],THP-1 IL4 pIC50,[1]; [2],B (B represents a pEC50 value between 6.7 and 7.5 (EC50 between 200 nM and 32 nM))
COc1cnc2cc(Nc3cc(C)[nH]n3)nc(N[C@@H]3C[C@H]4CCC[C@@H](C3)N4CCCF)c2c1 [Example 6-26],THP-1 IL4 pIC50,[1]; [3],B (B represents a pEC50 value between 6.7 and 7.5 (EC50 between 200 nM and 32 nM))
same,JAK 1 (pKi),JAK1,B (B represents a pKi value between 9 and 10 (Ki between 1 nM and 0.1 nM))
Cc1cc(Nc2cc3ncccc3c(N[C@@H]3C[C@H]4CC[C@@H](C3)N4CC(C)C)n2)n[nH]1 [Example 1-13],THP-1 IL4 pIC50,[1]; [2],A (A represents a pEC50 value≥7.5 (EC50≤32 nM))
same,JAK 1 (pKi),JAK1,B (B represents a pKi value between 9 and 10 (Ki between 1 nM and 0.1 nM))
Cc1cc(Nc2cc3ncccc3c(N[C@@H]3C[C@H]4CC[C@@H](C3)N4CC3COC(=O)O3)n2)n[nH]1 (stereo partly drawn) [Example 1-30],IC50,[1]; [4],31.6 to 200 nM
Cc1cc(Nc2cc3ncccc3c(N[C@@H]3C[C@H]4CCC[C@@H](C3)N4S(C)(=O)=O)n2)n[nH]1 [Example 4-16],THP-1 IL4 pIC50,[1]; [2],A (A represents a pEC50 value≥7.5 (EC50≤32 nM))
"COC(=O)c1cnc2cc(Nc3cc(C)[nH]n3)nc(N[C@@H]3C[C@H]4CC[C@@H](C3)N4C3CCCOC3=O)c2c1 (stereo partly drawn) [Example 16, Methyl 7-((5-methyl-1H-pyrazol-3-yl)amino)-5-(((1R,3s,5S)-8-(2-oxotetrahydro-2H-pyran-3-yl)-8-azabicyclo[3.2.1]octan-3-yl)amino)-1,6-naphthyridine-3-carboxylate]",IC50,[1]; [4],31.6 to 200 nM
same,Ki,JAK1,0.1 to 1 nM
Cc1cc(Nc2cc3ncccc3c(N[C@@H]3C[C@H]4CCC[C@@H](C3)N4CC(=O)OC(C)C)n2)n[nH]1 [Example 1-35],THP-1 IL4 pIC50,[1]; [2],A (A represents a pEC50 value≥7.5 (EC50≤32 nM))
Cc1cc(Nc2cc3ncccc3c(N[C@@H]3C[C@H]4CC[C@@H](C3)N4S(=O)(=O)c3ccccn3)n2)n[nH]1 [Example 4-14],IC50,[1]; [4],31.6 to 200 nM
Cc1cc(Nc2cc3ncccc3c(N[C@@H]3C[C@H]4CCC[C@@H](C3)N4[C@H]3CCOC3=O)n2)n[nH]1 [Example 1-51],THP-1 IL4 pIC50,[1]; [2],B (B represents a pEC50 value between 6.7 and 7.5 (EC50 between 200 nM and 32 nM))
Cc1cc(Nc2cc3ncccc3c(N[C@@H]3C[C@H]4CC[C@@H](C3)N4CC(=O)N[C@H]3CCOC3=O)n2)n[nH]1 [Example 1-12],THP-1 IL4 pIC50,[1]; [2],C (C represents a pEC50 value<6.7 (EC50>200 nM))
COC(=O)c1cnc2cc(Nc3cc(C)[nH]n3)nc(N[C@@H]3C[C@H]4CC[C@@H](C3)N4C(=O)CN(C)C)c2c1 [Example 6-39],THP-1 IL4 pIC50,[1]; [3],C (C represents a pEC50 value<6.7 (EC50>200 nM))
same,JAK 1 (pKi),JAK1,B (B represents a pKi value between 9 and 10 (Ki between 1 nM and 0.1 nM))
COC(=O)CCN1[C@@H]2CC[C@H]1C[C@H](Nc1nc(Nc3cc(C)[nH]n3)cc3ncccc13)C2 [Example 1-2],THP-1 IL4 pIC50,[1]; [2],C (C represents a pEC50 value<6.7 (EC50>200 nM))
CCOCC(=O)N1[C@@H]2CC[C@H]1C[C@H](Nc1nc(Nc3cc(C)[nH]n3)cc3ncccc13)C2 [Example 2-4],THP-1 IL4 pIC50,[1]; [2],C (C represents a pEC50 value<6.7 (EC50>200 nM))
COCCCN1[C@@H]2CCC[C@H]1C[C@H](Nc1nc(Nc3cc(C)[nH]n3)cc3ncccc13)C2 [Example 1-46],THP-1 IL4 pIC50,[1]; [2],B (B represents a pEC50 value between 6.7 and 7.5 (EC50 between 200 nM and 32 nM))
same,JAK 1 (pKi),JAK1,B (B represents a pKi value between 9 and 10 (Ki between 1 nM and 0.1 nM))
COc1ccnc2cc(Nc3cc(C)[nH]n3)nc(N[C@@H]3C[C@H]4CC[C@@H](C3)N4C(=O)OCC(C)C)c12 [Example 7-1],THP-1 IL4 pIC50,[1]; [3],B (B represents a pEC50 value between 6.7 and 7.5 (EC50 between 200 nM and 32 nM))
same,JAK 1 (pKi),JAK1,B (B represents a pKi value between 9 and 10 (Ki between 1 nM and 0.1 nM))
Cc1cc(Nc2cc3ncccc3c(N[C@@H]3C[C@H]4CC[C@@H](C3)N4S(=O)(=O)C3(C)CC3)n2)n[nH]1 [Example 4-8],IC50,[1]; [4],< 31.6 nM
COC(=O)c1cnc2cc(Nc3cc(C)[nH]n3)nc(N[C@@H]3C[C@H]4CC[C@@H](C3)N4CCCF)c2c1 [Example 6-44],THP-1 IL4 pIC50,[1]; [3],B (B represents a pEC50 value between 6.7 and 7.5 (EC50 between 200 nM and 32 nM))
Cc1cc(Nc2cc3ncc(S(C)(=O)=O)cc3c(N[C@@H]3C[C@H]4CC[C@@H](C3)N4CCCF)n2)n[nH]1 [Example 6-55],THP-1 IL4 pIC50,[1]; [3],C (C represents a pEC50 value<6.7 (EC50>200 nM))
Cc1cc(Nc2cc3ncccc3c(N[C@@H]3C[C@H]4CC[C@@H](C3)N4CC(=O)N[C@@H]3CCOC3=O)n2)n[nH]1 [Example 1-11],THP-1 IL4 pIC50,[1]; [2],C (C represents a pEC50 value<6.7 (EC50>200 nM))
COc1ccnc2cc(Nc3cc(C)[nH]n3)nc(N[C@@H]3C[C@H]4CC[C@@H](C3)N4C(=O)CN(C)C)c12 [Example 7-3],THP-1 IL4 pIC50,[1]; [3],C (C represents a pEC50 value<6.7 (EC50>200 nM))
COC(=O)CCCN1[C@@H]2CCC[C@H]1C[C@H](Nc1nc(Nc3cc(C)[nH]n3)cc3ncccc13)C2 [Example 1-34],THP-1 IL4 pIC50,[1]; [2],C (C represents a pEC50 value<6.7 (EC50>200 nM))
same,JAK 1 (pKi),JAK1,B (B represents a pKi value between 9 and 10 (Ki between 1 nM and 0.1 nM))
Cc1cc(Nc2cc3nc(CN4CCN(C)CC4)ccc3c(N[C@@H]3C[C@H]4CC[C@@H](C3)N4CC(F)(F)F)n2)n[nH]1 [Example 5-35],IC50,[1]; [4],< 31.6 nM
Cc1cc(Nc2cc3ncccc3c(N[C@@H]3C[C@H]4CC[C@@H](C3)N4CCCF)n2)n[nH]1 [Example 1-9],THP-1 IL4 pIC50,[1]; [2],C (C represents a pEC50 value<6.7 (EC50>200 nM))
same,JAK 1 (pKi),JAK1,B (B represents a pKi value between 9 and 10 (Ki between 1 nM and 0.1 nM))
Cc1cc(Nc2cc3ncc(S(C)(=O)=O)cc3c(N[C@@H]3C[C@H]4CC[C@@H](C3)N4[C@@H]3CCOC3=O)n2)n[nH]1 [Example 6-57],THP-1 IL4 pIC50,[1]; [3],C (C represents a pEC50 value<6.7 (EC50>200 nM))
Cc1cc(Nc2cc3ncccc3c(N[C@@H]3C[C@H]4CC[C@@H](C3)N4C(=O)OCC(C)C)n2)n[nH]1 [Example 3-3],THP-1 IL4 pIC50,[1]; [2],A (A represents a pEC50 value≥7.5 (EC50≤32 nM))
same,JAK 1 (pKi),JAK1,B (B represents a pKi value between 9 and 10 (Ki between 1 nM and 0.1 nM))
C=CCOC(=O)N1[C@@H]2CCC[C@H]1C[C@H](Nc1nc(Nc3cc(C)[nH]n3)cc3nc(CN4CCOCC4)ccc13)C2 [Example 5-25],THP-1 IL4 pIC50,[1]; [2],B (B represents a pEC50 value between 6.7 and 7.5 (EC50 between 200 nM and 32 nM))
Cc1cc(Nc2cc3ncccc3c(N[C@@H]3C[C@H]4CC[C@@H](C3)N4CC3CCC(=O)O3)n2)n[nH]1 (stereo partly drawn) [Example 1-29],THP-1 IL4 pIC50,[1]; [2],C (C represents a pEC50 value<6.7 (EC50>200 nM))
Cc1cc(Nc2cc3nc(CN4CCC(F)(F)CC4)ccc3c(N[C@@H]3C[C@H]4CC[C@@H](C3)N4CC(F)(F)F)n2)n[nH]1 [Example 5-33],IC50,[1]; [4],31.6 to 200 nM
COC(=O)CCCN1[C@@H]2CC[C@H]1C[C@H](Nc1nc(Nc3cc(C)[nH]n3)cc3ncccc13)C2 [Example 1-3],THP-1 IL4 pIC50,[1]; [2],C (C represents a pEC50 value<6.7 (EC50>200 nM))
CCC1(S(=O)(=O)N2[C@@H]3CC[C@H]2C[C@H](Nc2nc(Nc4cc(C)[nH]n4)cc4nc(CN5CCC(F)(F)CC5)ccc24)C3)CC1 [Example 5-32],IC50,[1]; [4],31.6 to 200 nM
Cc1cc(Nc2cc3nc(CN4CCOCC4)ccc3c(N[C@@H]3C[C@H]4CCC[C@@H](C3)N4S(=O)(=O)N3CCC3)n2)n[nH]1 [Example 5-28],THP-1 IL4 pIC50,[1]; [2],B (B represents a pEC50 value between 6.7 and 7.5 (EC50 between 200 nM and 32 nM))
COC(=O)CN1[C@@H]2CC[C@H]1C[C@H](Nc1nc(Nc3cc(C)[nH]n3)cc3ncccc13)C2 [Example 1-1],THP-1 IL4 pIC50,[1]; [2],C (C represents a pEC50 value<6.7 (EC50>200 nM))
Cc1cc(Nc2cc3ncc(S(C)(=O)=O)cc3c(N[C@@H]3C[C@H]4CC[C@@H](C3)N4[C@H]3CCOC3=O)n2)n[nH]1 [Example 6-58],THP-1 IL4 pIC50,[1]; [3],C (C represents a pEC50 value<6.7 (EC50>200 nM))
Cc1cc(Nc2cc3ncccc3c(N[C@@H]3C[C@H]4CC[C@@H](C3)N4Cc3ccc(O)cc3)n2)n[nH]1 [Example 1-18],IC50,[1]; [4],> 200 nM
same,Ki,JAK1,0.1 to 1 nM
Cc1cc(Nc2cc3ncccc3c(N[C@@H]3C[C@H]4CC[C@@H](C3)N4Cc3cccc(O)c3)n2)n[nH]1 [Example 1-19],IC50,[1]; [4],31.6 to 200 nM
Cc1cc(Nc2cc3nc(CN4CCOCC4)ccc3c(N[C@@H]3C[C@H]4CC[C@@H](C3)N4S(C)(=O)=O)n2)n[nH]1 [Example 5-15],IC50,[1]; [4],31.6 to 200 nM
COc1ccnc2cc(Nc3cc(C)[nH]n3)nc(N[C@@H]3C[C@H]4CC[C@@H](C3)N4CCF)c12 [Example 7-7],THP-1 IL4 pIC50,[1]; [3],B (B represents a pEC50 value between 6.7 and 7.5 (EC50 between 200 nM and 32 nM))
COC(=O)C1(C(=O)N2[C@@H]3CC[C@H]2C[C@H](Nc2nc(Nc4cc(C)[nH]n4)cc4ncccc24)C3)CC1 [Example 2-9],IC50,[1]; [4],> 200 nM
Cc1cc(Nc2cc3ncccc3c(N[C@@H]3C[C@H]4CCC[C@@H](C3)N4[C@@H]3CCOC3=O)n2)n[nH]1 [Example 1-52],THP-1 IL4 pIC50,[1]; [2],B (B represents a pEC50 value between 6.7 and 7.5 (EC50 between 200 nM and 32 nM))
